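Five compound concentrations were applied to cells in 96-well plates for 48 hours; endpoints were derived by simple linear interpolation of the resulting dose-response curve. TGI denotes the concentration required for complete inhibition of growth.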
Assays:
Assay in all cases: growth of human tumour cells (NCI), 48 h
SF-539 CNS = system: SF-539 CNS
SK-MEL-2 melanoma = system: SK-MEL-2 melanoma
SF-295 CNS = system: SF-295 CNS
OVCAR-4 ovarian = system: OVCAR-4 ovarian
SN12C renal = system: SN12C renal
SK-MEL-28 melanoma = system: SK-MEL-28 melanoma
SW-620 colon = system: SW-620 colon
HT29 colon = system: HT29 colon
LOX IMVI melanoma = system: LOX IMVI melanoma
786-0 renal = system: 786-0 renal
RXF 393 renal = system: RXF 393 renal
IGROV1 ovarian = system: IGROV1 ovarian

Row | Structure (SMILES) | TGI (SF-539 CNS) [µM] | TGI (SK-MEL-2 melanoma) [µM] | TGI (SF-295 CNS) [µM] | TGI (OVCAR-4 ovarian) [µM] | TGI (SN12C renal) [µM] | TGI (SK-MEL-28 melanoma) [µM] | TGI (SW-620 colon) [µM] | TGI (HT29 colon) [µM] | TGI (LOX IMVI melanoma) [µM] | TGI (786-0 renal) [µM] | TGI (RXF 393 renal) [µM] | TGI (IGROV1 ovarian) [µM]
1 | CO/N=C(\C(=O)OC(=NC1CCCCC1)NC1CCCCC1)c1csc(NC(c2ccccc2)(c2ccccc2)c2ccccc2)n1 | > 10 | > 10 | > 10 | > 10 | > 10 | > 10 | > 10 | > 10 | > 10 | > 10 | > 10 | > 10
2 | Cc1ccc(/C=N/Nc2cc(C)c3cccc(C)c3n2)s1 | 41.1 | 33.2 | 21.8 | > 100 | 25.1 | > 100 | > 100 | 13 | 4.3 | 11 | 32.8 | 22.2
3 | Cc1n(Cc2ccccc2)c2c([n+]1C)C(=O)c1ccccc1C2=O | 0.179 | 0.388 | 0.554 | 0.812 | 0.112 | 0.541 | 0.763 | 0.353 | 0.401 | 0.877 | 2.42 | 0.127
4 | CC(=O)c1ccccc1NP(=O)(c1ccccc1)c1ccccc1 | > 100 | > 100 | > 100 | > 100 | > 100 | > 100 | > 100 | > 100 | > 100 | > 100 | > 100 | > 100
5 | O=c1[nH]cnc2c1cnn2Cc1cn(CCCCO)nn1 | > 100 | > 100 | > 100 | > 100 | > 100 | > 100 | > 100 | > 100 | > 100 | > 100 | > 100 | > 100
6 | O=C1C2SC34c5c2c2ccccc2n5CCC3CCCN14 (centres undefined) | > 100 | > 100 | > 100 | > 100 | > 100 | > 100 | > 100 | > 100 | > 100 | > 100 | > 100 | > 100
7 | COC(=O)/C=C(\C(=O)OC)C1C(=O)Oc2c(C)c(=O)c3ccccc3n21 (centres undefined) | > 100 | > 100 | > 100 | > 100 | > 100 | > 100 | > 100 | > 100 | > 100 | > 100 | > 100 | > 100

— PubChem BioAssay (NCI)
